Test system: patients with seasonal allergic rhinitis (SAR)
Assay: MP 428 two-week randomized double-blind study: Total Nasal Symptom Score (TNSS), change from baseline
Type: in vivo, human
Set-up: key to Change from Baseline in AM TNSS, Mean / Change from Baseline in AM TNSS, LS Mean / Change from Baseline in AM TNSS, Median: TNSS sum of 4 symptoms each 0-3 (0=none, 3=severe); change from baseline
Procedure: A two-week, randomized, double-blind study, which evaluated the effects of the co-administration of ASTELIN® (azelastine hydrochloride (HCl)) and FLONASE® (fluticasone propionate) compared to either product alone in patients with seasonal allergic rhinitis (SAR) was conducted during the 2006 Texas mountain cedar season. After a 5-day placebo lead-in period, 151 patients with moderate-to-severe allergic rhinitis symptoms were randomized to either: (1) (49 total patients) ASTELIN® (azelastine hydrochloride (HCl)) plus placebo saline nasal spray 2 sprays per nostril, 15 minutes apart, twice daily (AM & PM); (2) (50 total patients) FLONASE® (fluticasone propionate) plus placebo saline nasal spray, 2 sprays per nostril, 15 minutes apart, once daily (AM) and two sessions of placebo saline nasal spray, 2 sprays per nostril, 15 minutes apart (PM); or (3) (52 total patients) the co-administration of ASTELIN® (azelastine hydrochloride (HCl)) 2 sprays per nostril plus FLONASE® (fluticasone propionate) 2 sprays per nostril (AM), 15 minutes apart, and ASTELIN® (azelastine hydrochloride (HCl)) 2 sprays per nostril plus placebo saline nasal spray, 15 minutes apart, (PM) for a 2-week double-blind treatment period.
The primary efficacy variable was the change from baseline in the Total Nasal Symptom Score (TNSS), which comprised sneezing, itchy nose, runny nose, and nasal congestion (individual symptoms scores were assigned a value between 0 and 3, where 0=no symptoms and 3=severe symptoms). This study was not statistically designed to assess the differences between ASTELIN® and FLONASE®.

[1] = Day 5, Intent-to-Treat Population
[2] = Day 6, Intent-to-Treat Population
[3] = Day 7, Intent-to-Treat Population
[4] = Day 8, Intent-to-Treat Population
[5] = Day 9, Intent-to-Treat Population

CCC(=O)O[C@]1(C(=O)SCF)[C@H](C)C[C@H]2[C@@H]3C[C@H](F)C4=CC(=O)C=C[C@]4(C)[C@@]3(F)[C@@H](O)C[C@@]21C [Fluticasone, fluticasone propionate]
Percent Change from Baseline in AM and PM Combined TNSS, Mean [1]: −26.89%
Percent Change from Baseline in AM and PM Combined TNSS, Median [1]: −22.77%
Percent Change from Baseline in PM TNSS, LS Mean [1]: −27.51%
Percent Change from Baseline in PM TNSS, Mean [1]: −27.06%
Percent Change from Baseline in PM TNSS, Median [1]: −22.22%
Change from Baseline in AM and PM Combined TNSS, LS Mean (Day 5, Intent-to-Treat Population, ANCOVA model): −5.20
Change from Baseline in AM and PM Combined TNSS, LS Mean (Day 5, Per-Protocol Population): −5.23
Change from Baseline in AM and PM Combined TNSS, Mean (Day 5, Per-Protocol Population): −5.23
Change from Baseline in AM and PM Combined TNSS, Median (Day 5, Per-Protocol Population): −4.40
Percent Change from Baseline in AM and PM Combined TNSS, LS Mean (Day 5, Per-Protocol Population): −27.42%
Percent Change from Baseline in AM and PM Combined TNSS, Mean (Day 5, Per-Protocol Population): −27.16%
Percent Change from Baseline in AM and PM Combined TNSS, Median (Day 5, Per-Protocol Population): −22.77%
Change from Baseline in AM TNSS, LS Mean [2]: −2.59
Change from Baseline in AM TNSS, Mean [2]: −2.57
Change from Baseline in AM TNSS, Median [2]: −2.20
Change from Baseline in AM and PM Combined TNSS, Mean [2]: −5.10
Change from Baseline in AM and PM Combined TNSS, Median [2]: −4.45
Change from Baseline in PM TNSS, LS Mean [2]: −2.53
Change from Baseline in PM TNSS, Mean [2]: −2.53
Change from Baseline in PM TNSS, Median [2]: −2.00
Percent Change from Baseline in AM TNSS, LS Mean [2]: −27.42%
Percent Change from Baseline in AM TNSS, Mean [2]: −27.12%
Percent Change from Baseline in AM TNSS, Median [2]: −23.81%
Percent Change from Baseline in AM and PM Combined TNSS, LS Mean [2]: −27.15%
Percent Change from Baseline in AM and PM Combined TNSS, Mean [2]: −26.90%
Percent Change from Baseline in AM and PM Combined TNSS, Median [2]: −22.20%
Percent Change from Baseline in PM TNSS, LS Mean [2]: −26.81%
Percent Change from Baseline in PM TNSS, Mean [2]: −26.62%
Percent Change from Baseline in PM TNSS, Median [2]: −22.22%
Change from Baseline in AM and PM Combined TNSS, LS Mean (Day 6, Intent-to-Treat Population, ANCOVA model): −5.12
Change from Baseline in AM and PM Combined TNSS, LS Mean (Day 6, Per-Protocol Population): −5.11
Change from Baseline in AM and PM Combined TNSS, Mean (Day 6, Per-Protocol Population): −5.12
Change from Baseline in AM and PM Combined TNSS, Median (Day 6, Per-Protocol Population): −4.45
Percent Change from Baseline in AM and PM Combined TNSS, LS Mean (Day 6, Per-Protocol Population): −27.15%
Percent Change from Baseline in AM and PM Combined TNSS, Mean (Day 6, Per-Protocol Population): −26.95%
Percent Change from Baseline in AM and PM Combined TNSS, Median (Day 6, Per-Protocol Population): −22.20%
Change from Baseline in AM TNSS, LS Mean [3]: −2.55
Change from Baseline in AM TNSS, Mean [3]: −2.57
Change from Baseline in AM TNSS, Median [3]: −2.00
Change from Baseline in AM and PM Combined TNSS, Mean [3]: −5.02
Change from Baseline in AM and PM Combined TNSS, Median [3]: −5.00
Change from Baseline in PM TNSS, LS Mean [3]: −2.50
Change from Baseline in PM TNSS, Mean [3]: −2.45
Change from Baseline in PM TNSS, Median [3]: −2.00
Percent Change from Baseline in AM TNSS, LS Mean [3]: −26.16%
Percent Change from Baseline in AM TNSS, Mean [3]: −26.29%
Percent Change from Baseline in AM TNSS, Median [3]: −22.22%
Percent Change from Baseline in AM and PM Combined TNSS, LS Mean [3]: −26.00%
Percent Change from Baseline in AM and PM Combined TNSS, Mean [3]: −25.75%
Percent Change from Baseline in AM and PM Combined TNSS, Median [3]: −23.81%
Percent Change from Baseline in PM TNSS, LS Mean [3]: −25.72%
Percent Change from Baseline in PM TNSS, Mean [3]: −25.18%
Percent Change from Baseline in PM TNSS, Median [3]: −20.45%
Change from Baseline in AM and PM Combined TNSS, LS Mean (Day 7, Intent-to-Treat Population, ANCOVA model): −5.06
Change from Baseline in AM and PM Combined TNSS, LS Mean (Day 7, Per-Protocol Population): −4.98
Change from Baseline in AM and PM Combined TNSS, Mean (Day 7, Per-Protocol Population): −4.99
Change from Baseline in AM and PM Combined TNSS, Median (Day 7, Per-Protocol Population): −5.00
Percent Change from Baseline in AM and PM Combined TNSS, LS Mean (Day 7, Per-Protocol Population): −25.63%
Percent Change from Baseline in AM and PM Combined TNSS, Mean (Day 7, Per-Protocol Population): −25.57%
Percent Change from Baseline in AM and PM Combined TNSS, Median (Day 7, Per-Protocol Population): −23.81%
Change from Baseline in AM TNSS, LS Mean [4]: −2.40
Change from Baseline in AM TNSS, Mean [4]: −2.36
Change from Baseline in AM TNSS, Median [4]: −1.67
Change from Baseline in AM and PM Combined TNSS, Mean [4]: −4.55
Change from Baseline in AM and PM Combined TNSS, Median [4]: −3.70
Change from Baseline in PM TNSS, LS Mean [4]: −2.24
Change from Baseline in PM TNSS, Mean [4]: −2.18
Change from Baseline in PM TNSS, Median [4]: −2.00
Percent Change from Baseline in AM TNSS, LS Mean [4]: −25.01%
Percent Change from Baseline in AM TNSS, Mean [4]: −24.67%
Percent Change from Baseline in AM TNSS, Median [4]: −19.23%
Percent Change from Baseline in AM and PM Combined TNSS, LS Mean [4]: −23.87%
Percent Change from Baseline in AM and PM Combined TNSS, Mean [4]: −23.38%
Percent Change from Baseline in AM and PM Combined TNSS, Median [4]: −20.97%
Percent Change from Baseline in PM TNSS, LS Mean [4]: −22.44%
Percent Change from Baseline in PM TNSS, Mean [4]: −21.91%
Percent Change from Baseline in PM TNSS, Median [4]: −21.95%
Change from Baseline in AM and PM Combined TNSS, LS Mean (Day 8, Intent-to-Treat Population, ANCOVA model): −4.64
Change from Baseline in AM and PM Combined TNSS, LS Mean (Day 8, Per-Protocol Population): −4.61
Change from Baseline in AM and PM Combined TNSS, Mean (Day 8, Per-Protocol Population): −4.59
Change from Baseline in AM and PM Combined TNSS, Median (Day 8, Per-Protocol Population): −3.70
Percent Change from Baseline in AM and PM Combined TNSS, LS Mean (Day 8, Per-Protocol Population): −23.68%
Percent Change from Baseline in AM and PM Combined TNSS, Mean (Day 8, Per-Protocol Population): −23.43%
Percent Change from Baseline in AM and PM Combined TNSS, Median (Day 8, Per-Protocol Population): −20.97%
Change from Baseline in AM TNSS, LS Mean [5]: −2.43
Change from Baseline in AM TNSS, Mean [5]: −2.38

— patent US8758816B2, “Compositions comprising azelastine and methods of use thereof” (priority 2004, dated 2014)
